In patent US9335332B2, “Nicotinamide phosphoribosyltransferase (NMPRTase) inhibitor for glioma therapy” (COUNCIL OF SCIENTIFIC AND INDUSTRIAL RESEARCH, priority 2010, dated 2016):

Columns and labels:
NMPRTase [1] = target: T1, NMPRTase (Homo sapiens, UniProt P43490); test: NMPRTase assay: conversion of 14[C]-nicotinamide to 14[C]-NAD by U87 cell extract; assay type: biochemical; conditions: 14[C]-NAD formed, FIG. 2C, 3A and 3B
T1 construct: To prepare cytoplasmic extract, as source of NMPRTase, logarithmically growing U87 glioblastoma cells were collected; endogenous in cells; host or cells: U87 glioblastoma cells (cytoplasmic extract)
T1 sequence (P43490 whole entry): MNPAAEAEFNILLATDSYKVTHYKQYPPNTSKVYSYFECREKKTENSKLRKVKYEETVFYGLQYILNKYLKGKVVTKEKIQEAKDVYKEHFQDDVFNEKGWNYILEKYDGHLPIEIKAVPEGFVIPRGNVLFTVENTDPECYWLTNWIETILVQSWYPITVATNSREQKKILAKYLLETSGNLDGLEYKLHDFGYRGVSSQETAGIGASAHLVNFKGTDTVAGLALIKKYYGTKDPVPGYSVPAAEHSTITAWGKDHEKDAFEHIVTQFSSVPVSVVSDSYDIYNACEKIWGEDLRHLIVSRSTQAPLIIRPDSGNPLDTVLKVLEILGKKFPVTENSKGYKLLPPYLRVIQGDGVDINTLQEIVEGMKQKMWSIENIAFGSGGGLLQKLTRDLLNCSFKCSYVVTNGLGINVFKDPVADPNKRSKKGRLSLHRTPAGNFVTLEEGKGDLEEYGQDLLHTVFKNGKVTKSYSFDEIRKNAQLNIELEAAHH
Procedure: In accordance with the inventive steps, the measurement of NMPRTase activity was carried. To prepare cytoplasmic extract, as source of NMPRTase, logarithmically growing U87 glioblastoma cells were collected by centrifugation and washed three times with Ca^2+, Mg^2+ free PBS. The cells pellet (2 to 3×10^7 cells) was suspended and lysed in 1 mL of 0.01 M NaH2PO4 (pH 7.4) by one round of freezing and slow thawing. The clear supernatant was recovered on ice after centrifugation at 23,000×g at 0° C. for 90 mins. […] of 1% protamine sulfate were added per ml of supernatant and incubated for 15 min on ice, followed by centrifugation at 23,000×g at 0° C. for 30 mins. The final supernatant was stored in small aliquots at −80° C. The NMPRTase activity was determined in 0.5 ml of reaction solution consisting of 5 mM MgCl2, 2 mM ATP, 0.5 mM phosphoribosyl PPI (pyrophosphate), 0.1 mM 14[C]-nicotinamide (specific activity: 50 mCi/mmol; American Radiolabeled Chemicals, Inc.) and 50 mM Tris (pH 8.8) at 37° C. […] The precipitate was removed by centrifugation at 2500×g at 4° C. for 10 min and the supernatant was stored at −20° C. The 14[C]-labeled components in the cell extracts were separated and identified using thin-layer chromatography (cellulose/1 M ammonium sulphate:ethanol (3:7). The chromatograms were run and exposed to imaging plates (Fuji) read using Phosphoimger (Fuji) the 14[C]-labeled NAD was quantified using Alpha Innotec software.
In accordance with the inventive steps, selected compounds were tested for inhibition of NMPRTase activity. Measurement of the ability of NMPRTase to convert 14[C]-nicotinamide to 14[C]-NAD was carried out. Most of the glioblastoma tissues have elevated levels of transcript and protein of PBEF1/NMPRTase. To prepare NMPRTase enzyme, firstly a panel of glioma derived cell lines was tested for NMPRTase transcript and protein levels.

[2] = test system: glioma derived cell line U87; test: MTT viability assay, U87 cells; assay type: cell-based; conditions: Homo sapiens, U-87 MG, MTT at 48 hrs after addition of compounds
Procedure: Viability was measured by MTT assay at 48 hrs after addition of indicated compounds to U87 cells. The assays were carried out in triplicates and the mean value for each time point was used to generate the graph.
In accordance with the inventive steps, MTT assay was performed (Das, S.; El-Deiry, W. S.; Somasundaram, K. Efficient growth inhibition of HPV 16 E6-expressing cells by an adenovirus-expressing p53 homologue p73beta. Oncogene 2003, 22, 8394-402). A total of 1.5×10^3 cells/well were plated in a 96-well plate. After 24 h of plating, the cells were treated with indicated amounts of compounds. A measure of 20 μL (5 mg/mL) of MTT was added to each well 48 hrs after the addition of the compounds. MTT is a tetrazolium salt that is converted by living cells into purple formazan crystals. The medium was removed from the wells 3 hrs after MTT addition and 200 μL of DMSO (Dimethyl sulfoxide) was added to dissolve the formazan crystals, and then the absorbance was measured at 550 nm in an ELISA reader.
In accordance with the inventive steps, to correlate the NMPRTase inhibition property with cell growth inhibition, the ability of these compounds to inhibit the growth of a glioma derived cell line U87 was tested, which has elevated levels of PBEF1.

NMPRTase [3] = target: T1, NMPRTase; conditions: reference compounds, Table 1A; cited from earlier work

Compound | Inhibition of NMPRTase activity (NMPRTase [1]) | IC50 [2] | Biochemical energy of binding (NMPRTase [3])
O=C(/C=C/c1cccnc1)NCCCCC1CCN(C(=O)c2ccccc2)CC1 [FK866, reference compound] | inhibited efficiently | 170 µM | -9.25 kcal/mol
NC(=O)c1cccnc1 [Nicotinamide] | – | > 500 µM | –
CC(=O)c1cc(-n2nc3ccccc3n2)c(O)c(-n2nc3ccccc3n2)c1O [Compound 3, 1,[3,5-Di(2H-1,2,3-benzotriazol-2-yl)-2,4-dihydroxyphenyl]ethan-1-one] | – | > 500 µM | –
O=C1c2cc(S(=O)(=O)[O-])ccc2-c2ccc(S(=O)(=O)[O-])cc21.[K+].[K+] [Compound 1, Dipotassium 9-oxo-9H-fluorene-2,7-disulfonate] | did not inhibit NMPRTase activity | 335 µM | –
CCOC(=O)c1nn(-c2ccccc2)c(=O)c2c(N)c(C#N)c(-c3ccco3)cc12 [Compound 2, Ethyl-5-amino-6-cyano-7-(2-furyl)-4-oxo-3-phenyl-3,4-dihydro-1-phthalazinecarboxylate] | – | > 500 µM | –
CC12OC(c3ccccc3)=CC(c3ccccc3)=C1C(c1ccccc1)=CC2=O (centres unmarked) [Compound 4, 7a-methyl-2,4,5-triphenyl-7,7a-dihydrocyclopenta[b]pyran-7-one] | inhibited NMPRTase activity | > 500 µM | –
Cc1nn(-c2ccccc2)nc1CNC(=O)C1=Cc2ccccc2OC1 [Compound 6, N-[(5-methyl-2-phenyl-2H-1,2,3-triazol-4-yl)methyl]-2H-chromene-3-carboxamide] | – | > 500 µM | –
Nc1c(-c2ccc3ccccc3n2)c2ccc([N+](=O)[O-])cc2c(=O)n1Cc1ccccc1 [Compound 5, 3-amino-2-benzyl-7-nitro-4-(2-quinolyl)-1,2-dihydroisoquinolin-1-one] | inhibited NMPRTase activity | 325 µM | –
O=C(O)c1cccnc1 [Niacin, reference compound] | – | > 500 µM | –
